PubChem BioAssay AID2305 (GlaxoSmithKline (GSK), 2010)
Several values for one entry are separate records, joined by “and”; a condition that tells them apart may be missing. Identical values can stand only once.

test system: P. falciparum 3D7 growth, pLDH absorbance; assay: P. falciparum 3D7 growth inhibition, dose response, strain 3D7 (AID 2305)

Row | SMILES | IC50
1 | CCN1CCN(c2ccc(Nc3c4ccccc4nc4ccccc34)cc2)CC1 | 720 nM
2 | OC(CNCc1ccccc1OC(F)F)c1cccc(C(F)(F)F)c1 (configuration not stated) | 760 nM
3 | O=C(N[C@@H](CC1CCCCC1)C(=O)NCCN1CCCCC1)c1ccc(O)c(-c2ccc(Cl)c(Cl)c2)c1 | 150 nM
4 | O=C(Nc1ccc(C(F)(F)F)cc1)Nc1cccc([N+](=O)[O-])c1 | 870 nM
5 | Fc1cccc(C=NNc2ccnc3cc(Cl)ccc23)c1 | 530 nM
6 | Cc1ncsc1CCN1C(=O)CC2(C1=O)C(=O)N(Cc1ccccc1)c1ccc(Cl)cc12 (configuration not stated) | 980 nM
7 | O=C(Nc1ccc2c(c1)OCO2)c1cc(-c2cccnc2)cnc1NCc1ccc2c(c1)OCO2 | 1190 nM
8 | O=C(Nc1ccccc1)NC1CCN(CCC2(c3ccc(Cl)c(Cl)c3)COCN(C(=O)c3ccccc3)C2)C1 (configuration not stated) | 880 nM
9 | Cc1cc(-c2ccc(CNCc3ccsc3)cc2)ccc1S(=O)(=O)NCCN1CCCC1 | 720 nM
10 | CCc1cn2c3c(cc(C(=O)N[C@@H](Cc4cccc(F)c4)[C@H](O)CNC4CCOCC4)cc13)N(C)S(=O)(=O)CC2 | 70 nM
11 | CCc1nc(N)nc(N)c1-c1ccccc1 | 1180 nM
12 | CN1CCN(c2ccc(Nc3ncc(C#N)c(Nc4ccccc4C(N)=O)n3)cc2)CC1 | 40 nM
13 | FC(F)(F)c1cc(CNCCCNc2nc3ccncc3[nH]2)ccc1Cl | 1010 nM
14 | CC(=O)c1ccc(N2CCN(C(=O)Nc3ccc(Cl)cc3)CC2)cc1 | 980 nM
15 | COc1cc2nc(C)nc(Nc3ccc4c(ccn4Cc4ccccc4)c3)c2cc1OC | 560 nM
16 | Fc1ccc2nc(-c3ccc(-c4ccc(CN5CCN(CCN6CCOCC6)CC5)cc4)cc3)[nH]c2c1 | 180 nM
17 | O=C(/C=C/c1ccc(Cl)c(Cl)c1)NCCCCCN1CC[C@H](c2c[nH]c3ccccc23)[C@@H](O)C1 | 800 nM
18 | Cc1cc(C)c2oc(-c3cccc(NC(=O)c4ccc([N+](=O)[O-])o4)c3C)nc2c1 | 1150 nM
19 | COc1ccc(CN(C)Cc2cc(C(C)C)c(C)cc2O)cc1F | 650 nM
20 | CCNc1cc(C)nc(Nc2ccc(NC(=O)c3ccccc3Cl)cc2)n1 | 1010 nM
21 | Cc1cc(N[C@@H](CC(C)C)C(=O)NCCOc2ccccc2)nc(NCCc2ccccc2)n1 | 1510 nM
22 | O=C(Nc1cccc(-c2cccc(-c3nc4ccc(C(F)(F)F)cc4[nH]3)c2)c1)c1ccoc1 | 280 nM
23 | Cc1[nH]c(C)c(-c2ccc(OCc3ccc(OC(F)(F)F)cc3)nc2)c(=O)c1Cl | 70 nM
24 | C=CC[C@H](NC(=O)c1ccc(NS(=O)(=O)c2ccc3nc(N)[nH]c(=O)c3c2)cc1)C(=O)OCCCC | 150 nM
25 | Nc1nc(N)c2cc(N(Cc3ccccc3)Cc3ccccc3)ccc2n1 | 610 nM

Row | SMILES | IC50
26 | COc1ccc(Cl)cc1S(=O)(=O)Nc1cccc(CCN2CCC(N3CCCCC3)CC2)c1 | 700 nM
27 | c1ccc(CN2CCC(NCc3ccc(-c4cncc5ccccc45)cc3)CC2)cc1 | 880 nM
28 | c1cncc(CNc2ncc(-c3ccsc3)c(-c3nccs3)n2)c1 | 1380 nM
29 | COc1ccc(CNCc2ccccc2)cc1-c1ccc(S(=O)(=O)NCCN2CCCC2)cc1 | 820 nM
30 | CC(C)CNC(=O)c1cncc(-c2ccc(CNCCCc3ccccc3)cc2)c1 | 770 nM
31 | Cc1cc(N(C)C)nc(Nc2ccc(NC(=O)c3ccccc3C)cc2)n1 | 1130 nM
32 | COc1ccc(N2CCN(CCCCNC(=O)c3ccc(NC(=O)c4ccc(C(F)(F)F)cc4)cc3)CC2)c(OC)c1 | 590 nM
33 | N[C@@H](Cc1cc(I)c(Oc2ccc(O)c(Cl)c2)c(I)c1)C(=O)O | 990 nM
34 | CCNC(=O)Nc1ccc(-c2ccc(-c3nc4c(C)cccc4[nH]3)s2)cc1 | 1070 nM
35 | Fc1ccc2nc(Nc3nc(-c4ccccn4)cs3)sc2c1 | 560 nM
36 | N#Cc1ccc(N(CCOC(=O)c2ccccc2)Cc2ccccc2C(F)(F)F)cc1C(F)(F)F | 920 nM
37 | O=C(/C=C/c1ccc(Cl)c(Cl)c1)N1CCN(C(=O)Nc2ccc(C(F)(F)F)cc2)CC1 | 670 nM
38 | Cc1ccc(OCC2CCN(c3ncc(C(=O)NCCCN4CCCC4=O)cc3Cl)CC2)cc1 | 1260 nM
39 | COc1ccc2nccc(NC(=O)C3(O)CCC(NCc4ccc5c(c4)NCCS5)CC3)c2n1 (configuration not stated) | 600 nM
40 | CC(=O)Nc1ccc(C(=O)Nc2cccc(-c3ccc(-c4nc5c(C)cccc5[nH]4)cc3)c2)cn1 | 190 nM
41 | CCCN(CCCCNC(=O)c1ccc(-c2cccnc2)cc1)C1CCc2c(O)cccc2C1 (configuration not stated) | 1120 nM
42 | COc1cc(C(=O)Nc2cccc(-c3cn4cccc(C)c4n3)c2)cc(OC)c1OC | 700 nM
43 | CC1(C)N=C(N)N=C(N)N1c1cccc(I)c1 | 130 nM
44 | COc1ccc(CC(=O)NC(CCN2CCC3(CC2)CN(S(C)(=O)=O)c2ccccc23)c2ccc(Cl)c(Cl)c2)cc1OC (configuration not stated) | 1000 nM
45 | Cc1nc(C)c(-c2ccc(Oc3ccc(OC(F)(F)F)cc3)cc2)c(OC(=O)N(CCNC(C)C)C(C)C)c1Br | 170 nM
46 | COc1ccc2[nH]c(C(=O)Nc3cccc(-c4ccc(CN(C)C)cc4)c3)cc2c1 | 910 nM
47 | Cc1cccc2[nH]c(-c3ccc(-c4ccc(CNCc5cccc(N)c5)cc4)s3)nc12 | 750 nM
48 | Cc1cc(-c2cc(Cl)ccc2Cl)no1 | 170 nM
49 | CCn1c(SCc2ccc(F)cc2)nc2sc3c(c2c1=O)CCN(C)C3 | 250 nM
50 | CS(=O)(=O)c1ccc(CNCc2ccc(-c3cccc(-c4nc5ccc(F)cc5[nH]4)c3)cc2)cc1 | 320 nM

Row | SMILES | IC50
51 | CC(=O)Nc1cccc(CNc2cc(C)nc(Nc3ccc(C)cc3)n2)c1 | 1140 nM
52 | O=C(Nc1cc(Cl)ccc1O)c1cc(-c2ccccc2O)no1 | 1090 nM
53 | CCC(=Cc1cccc([N+](=O)[O-])c1)C(=O)NCC1CCN(c2nc(N)c3cc(OC)c(OC)cc3n2)CC1 | 240 nM
54 | COc1ccc2nc3cc(Cl)ccc3c(NCCCN3CCNCC3)c2c1 | 230 nM
55 | C[C@@]12C[C@@H](Nc3nc(NCCc4ccc(O)cc4)nc(N4CCNCC4)n3)C[C@@H](C1)c1cccc(Cl)c1O2 | 1320 nM
56 | Cc1[nH]c(C)c(-c2ccc(-c3ccccc3Cl)nc2)c(=O)c1Br | 170 nM
57 | CC1CN(S(=O)(=O)c2ccc(NC(=O)c3cc(-c4ccccc4O)n[nH]3)cc2)CC(C)O1 (configuration not stated) | 830 nM
58 | CCCCCN1CCCCC(NS(=O)(=O)c2ccc(C(=O)Nc3ccc(C(F)(F)F)cc3)cc2)C1 (configuration not stated) | 770 nM
59 | CCCCn1c(C(C)Oc2ccc(Cl)cc2Cl)nc2cc(S(N)(=O)=O)ccc21 (configuration not stated) | 710 nM
60 | Clc1cc(Nc2ccnc3ccc(Br)cc23)ccc1Oc1ccc(Cl)c2ccccc12 | 630 nM
61 | O=C(c1cccs1)N(Cc1cccc(-c2ccc(CNCCc3ccccc3)cc2)c1)C1CCN(Cc2ccccc2)CC1 | 860 nM
62 | CC(C)(Oc1c(C2CCN(CCCCNC(=O)c3ccc(-c4ccc(Cl)cc4)cc3)CC2)ccc2c1CCCC2)C(N)=O | 1090 nM
63 | CC(C)(C)c1ccc2nc(-c3ccc(/C=C/C(=O)NC4CCN(Cc5ccccc5)CC4)cc3)[nH]c2c1 | 590 nM
64 | CCn1c(-c2nonc2N)nc2cnc(Oc3cccc(NC(=O)c4ccc(OCCN(C(C)C)C(C)C)cc4)c3)cc21 | 780 nM
65 | O=C(Nc1ccc2c(c1)CCC2)N[C@H]1CCN(CCCCCNC(=O)[C@@H]2C[C@H]2c2ccc(Cl)c(Cl)c2)C1 | 1080 nM
66 | COc1cc(NC(=O)c2cc([N+](=O)[O-])ccc2NC(=O)CNC2CCCCC2C)cc(OC)c1 (configuration not stated) | 1730 nM
67 | Cc1[nH]c2ccccc2c1C1CCN(CCCCNC(=O)c2ccc(-c3ccc(C#N)cc3)cc2)CC1 | 700 nM
68 | O=C(NCCNc1nc(NCCNC(=O)Nc2ccccc2)c2ccc(=O)n(-c3c(F)cccc3F)c2n1)Nc1ccccc1 | 170 nM
69 | O=C(Cc1cccc(Cl)c1)Nc1ccc(N2CCC(NCc3ccc4ncccc4c3)CC2)cc1 | 1230 nM
70 | COc1ccc2nccc(N3CCC(CCNCc4ccc5c(n4)NC(=O)CS5)CC3)c2c1 | 210 nM
71 | Cc1cc(C(F)(F)F)n2nc(C(=O)N(Cc3cncn3Cc3ccccc3F)CC3CC3)cc2n1 | 960 nM
72 | O=C(Nc1cccc(Oc2ccccc2)c1)N[C@H]1CCN(Cc2ccc(OCCCN3CCCCC3)cc2)C1 | 720 nM
73 | Cc1[nH]c(C)c(-c2ccc(Oc3ccc(OC(F)(F)F)cc3)cc2)c(=O)c1Br | 560 nM and 110 nM
74 | COc1cc2nc(NCCCO)nc(Nc3ccc(Oc4ccccc4)cc3)c2cc1OC | 140 nM
75 | O=C(C=Cc1ccc(F)c(Br)c1)N1CCC(CN2CCC(c3c[nH]c4ccccc34)CC2)CC1 | 750 nM

Row | SMILES | IC50
76 | NCc1ccc(CNCc2ccc(-c3ccc(-c4nc5ccc(F)cc5[nH]4)cc3)cc2)cc1 | 400 nM
77 | O=C(Nc1cccc(C(F)(F)F)c1)NC1CCN(c2ccnc3cc(Cl)ccc23)CC1 | 290 nM
78 | O=C(/C=C/c1ccc(Cl)c(Cl)c1)NCCCCN1CCCN(C(=O)Nc2cc(Cl)cc(Cl)c2)CC1 | 950 nM
79 | NC(=O)CCC(NC(=O)CNC(=O)Nc1cccc(C(F)(F)F)c1)C(=O)O (configuration not stated) | 800 nM
80 | O=C(NCCN1CCCCC1)N1CCCN(c2ncnc3cc(-c4ccccc4)sc23)CC1 | 230 nM
81 | COC(=O)c1cc(/C(C)=N/Nc2nc3ccccc3[nH]2)ccc1O | 680 nM
82 | CCn1c(C(C)C)cc2c3c(N)nc(N)nc3ccc21 | 10 nM
83 | COc1ccc2nccc([C@@H](O)CN3CCC(NCC4COc5ccccc5O4)CC3)c2c1 (some centres not stated) | 250 nM
84 | COc1ccc(NC(=O)c2cc(-c3ccc(NC(C)=O)cc3)cnc2N)cc1 | 810 nM
85 | CC(C)(C)c1ccc(S(=O)(=O)Nc2ccccc2N2CCOCC2)cc1 | 680 nM
86 | Clc1ccc(CNc2nc(NCCc3cnc[nH]3)nc(NC3CCCCC3)n2)cc1 | 210 nM
87 | COc1ccc2c(=O)c(Br)c(C)[nH]c2c1 | 190 nM
88 | CC(C)COc1ccc(Cl)cc1Cc1nc(-c2nc3ccc(CN(C)C)cc3[nH]2)co1 | 710 nM
89 | COc1ccc(O)c(CN2CCN(c3cc(C)ccc3C)CC2)c1 | 1010 nM
90 | C[C@@H]1CN(c2ncc(-c3ccc(CNC4Cc5ccccc5C4)cc3)cn2)C[C@H](C)N1 | 1160 nM
91 | CC(C)(C)c1ccc(NC(=O)c2cccc(CN3CCCN(Cc4ccsc4)CC3)c2)cc1 | 760 nM
92 | N#Cc1ccc(-c2ccc(C(=O)NCCCCN3CCC(c4ccc5c(c4OCc4ccccn4)CCCC5)CC3)cc2)cc1 | 820 nM
93 | O=C(NCc1ccc2c(c1)OCO2)c1nn(CCN2CCC(N3CCCC3)CC2)cc1-c1ccc(Cl)c(Cl)c1 | 940 nM
94 | O=C(C=Cc1ccc(-c2ccccc2)cc1)N1CCC(CCN2CCC(c3c[nH]c4ccccc34)CC2)CC1 | 1120 nM
95 | Fc1ccc(C=NNc2nc3ccccc3[nH]2)cc1 | 780 nM
96 | Cc1cccc2[nH]c(-c3ccc(-c4ccc(NC(=O)N[C@@H]5C[C@H]5c5ccccc5)cc4)cc3)nc12 | 880 nM
97 | CC(C)(C)Cn1cc(-c2ccc(C(=O)NCCc3ccc(S(C)(=O)=O)cc3)cc2)c(N)n1 (tested in a mixture with another compound) | 650 nM
